Assay [1] has as its target HPK1 (Homo sapiens, UniProt Q92918). The assay is described as follows: HPK1 biochemical assay (ADP-GLO Kinase Assay). In outline:
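HPK1 (0.6 ng/μL final) activity was followed with MBP substrate and 10 μM ATP in Tris pH 7.5/MgCl2/BSA/DTT buffer, measured by ADP-Glo luminescence. Compounds were tested as 3-fold dilutions from 10 μM. IC50 came from a three-parameter logistic fit, with inhibition normalised to high/low controls.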

The target in assay [2] is T1, JAK3 (Homo sapiens, UniProt P52333).
T1 construct: purchased Thermo fisher PV3855
The assay is described as follows: JAK3 biochemical assay (ADP-GLO Kinase Assay). The settings on record: for JAKs/HPK1 IC50 Ratio, B*: first testing facility. In outline: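 Luminescent ADP-Glo readout after a 60 min, 25 °C reaction of JAK3 (0.78 ng) on Poly(E4Y1) (0.2 μg/μL) at 4 μM ATP, Tris pH 7.5 buffer with MgCl2, BSA and DTT. Compounds tested 10 μM down to 0.508 nM in 3-fold steps; % inhibition normalised to DMSO and reference-compound controls, IC50 from three-parameter fit.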
In general terms: In ADP-Glo the light output rises with the ADP produced.

Setting [3] is: B*: testing performed in a first testing facility, read-out: HPK1 IC50 (nM) Relative, B*.
Setting [4] is: B*: testing performed in a first testing facility, read-out: JAK3 IC50 (nM) Relative, B*.
Where [5] appears, read: ratio of JAK3 IC50 to HPK1 IC50.

Where two headings read alike, the source gives them in different places.

Data on 17 compounds can be found in patent US12612424B2, “HPK1 inhibitors and uses thereof” (Regor Pharmaceuticals, Inc., priority 2019, dated 2026).

T1 sequence (P52333 781-1124 limits assumed): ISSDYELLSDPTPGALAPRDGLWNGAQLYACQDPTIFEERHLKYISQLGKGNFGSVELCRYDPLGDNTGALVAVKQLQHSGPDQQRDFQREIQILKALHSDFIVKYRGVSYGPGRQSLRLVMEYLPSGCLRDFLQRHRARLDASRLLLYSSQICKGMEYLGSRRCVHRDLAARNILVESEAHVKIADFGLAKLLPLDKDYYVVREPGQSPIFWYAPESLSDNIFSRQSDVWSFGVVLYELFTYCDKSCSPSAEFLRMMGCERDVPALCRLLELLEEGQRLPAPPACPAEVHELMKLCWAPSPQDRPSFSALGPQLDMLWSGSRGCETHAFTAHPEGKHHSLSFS
Sequence of HPK1 (Q92918 whole entry): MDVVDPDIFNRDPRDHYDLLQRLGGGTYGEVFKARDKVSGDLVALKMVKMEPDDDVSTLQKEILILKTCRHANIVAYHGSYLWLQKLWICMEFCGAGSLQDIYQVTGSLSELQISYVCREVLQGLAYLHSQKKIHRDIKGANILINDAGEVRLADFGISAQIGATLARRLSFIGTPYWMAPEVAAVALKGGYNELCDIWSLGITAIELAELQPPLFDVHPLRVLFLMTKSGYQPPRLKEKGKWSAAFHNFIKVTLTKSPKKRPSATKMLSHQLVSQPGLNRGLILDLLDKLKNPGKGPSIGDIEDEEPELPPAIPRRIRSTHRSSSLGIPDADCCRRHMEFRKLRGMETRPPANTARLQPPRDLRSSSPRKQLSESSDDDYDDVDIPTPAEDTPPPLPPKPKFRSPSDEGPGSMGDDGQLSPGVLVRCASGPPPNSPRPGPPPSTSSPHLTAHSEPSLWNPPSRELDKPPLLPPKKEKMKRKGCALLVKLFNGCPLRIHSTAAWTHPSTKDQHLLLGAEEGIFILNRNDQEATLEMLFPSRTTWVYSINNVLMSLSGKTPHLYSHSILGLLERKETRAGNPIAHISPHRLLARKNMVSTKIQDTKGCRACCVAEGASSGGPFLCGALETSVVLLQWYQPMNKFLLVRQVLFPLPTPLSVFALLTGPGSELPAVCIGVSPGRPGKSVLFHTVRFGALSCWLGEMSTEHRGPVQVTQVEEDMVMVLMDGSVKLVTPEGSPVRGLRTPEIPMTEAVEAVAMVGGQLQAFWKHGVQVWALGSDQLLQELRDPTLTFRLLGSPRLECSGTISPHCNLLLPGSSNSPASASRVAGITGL

For orientation: IC50 means the concentration that gives 50% inhibition. For the compound `COc1cc2c(cc1Nc1ncc(Cl)c(N3CCc4ncccc43)n1)CN(C)CC2` [Example 16, N-(5-chloro-4-(2,3-dihydro-1H-pyrrolo[3,2-b]pyridin-1-yl)pyrimidin-2-yl)-6-methoxy-2-methyl-1,2,3,4-tetrahydroisoquinolin-7-amine], the IC50 in assay [1] (setting [3]) was no more than 100 nM; in assay [2] (setting [4]), greater than 1000 nM.
With `COc1cc2c(cc1Nc1ncc(Cl)c(N3CC(C)(C(=O)O)c4ccc(F)cc43)n1)CN(C)CC2` (centres unmarked) [Example 126], the IC50 in assay [1] (setting [3]) and in assay [2] (setting [4]) was no more than 100 nM in each case. Besides, in assay [2] (setting [5]), the “JAKs/HPK1 IC50 Ratio, B*” value was 9.
As to `COc1cc2c(cc1Nc1ncc(Cl)c(N3CC(c4nn[nH]n4)c4ccccc43)n1)CN(C)CC2` (centres unmarked) [Example 100, N-(4-(3-(2H-tetrazol-5-yl)indolin-1-yl)-5-chloropyrimidin-2-yl)-6-methoxy-2-methyl-1,2,3,4-tetrahydroisoquinolin-7-amine], the half-inhibitory concentration (IC50) was no more than 100 nM in assay [1] (setting [3]) and 100 to 500 nM in assay [2] (setting [4]). Further, the “JAKs/HPK1 IC50 Ratio, B*” value in assay [2] (setting [5]) was determined as 200.
For `COc1cc2c(cc1Nc1ncc(Cl)c(N3CC(C(=O)N(C)O)c4ccccc43)n1)CN(C)CC2` (centres unmarked) [Example 102] the same measures were no more than 100 nM, greater than 1000 nM and greater than 2603.
For `COc1cc2c(cc1Nc1ncc(Cl)c(-n3cc(CC(=O)O)c4ccc(F)cc43)n1)CN(C)CC2` [Example 139] the same measures were no more than 100 nM, 100 to 500 nM and 520.
For `CNC(=O)C1CN(c2nc(Nc3cc4c(cc3OC)CCN(C)C4)ncc2Cl)c2ccccc21` (centres unmarked) [Example 97, 1-(5-Chloro-2-((6-methoxy-2-methyl-1,2,3,4-tetrahydroisoquinolin-7-yl)amino)pyrimidin-4-yl)-N-methylindoline-3-carboxamide] the same measures were no more than 100 nM, greater than 1000 nM and 800.
In the case of `COc1cc2c(cc1Nc1ncc(Cl)c(N3CCc4cc(C(F)F)ccc43)n1)CN(C)CC2` [Example 90, N-(5-chloro-4-(5-(difluoromethyl)indolin-1-yl)pyrimidin-2-yl)-6-methoxy-2-methyl-1,2,3,4-tetrahydroisoquinolin-7-amine], the IC50 in assay [1] (setting [3]) was no more than 100 nM; in assay [2] (setting [4]), greater than 1000 nM. Besides, the “JAKs/HPK1 IC50 Ratio, B*” value in assay [2] (setting [5]) was 413.
For `COc1cc2c(cc1Nc1ncc(Cl)c(N3CC(C)(CC(=O)O)c4ccccc43)n1)CN(C(C)C)CC2` (centres unmarked) [Example 158, 2-(1-(5-Chloro-2-((2-isopropyl-6-methoxy-1,2,3,4-tetrahydroisoquinolin-7-yl)amino)pyrimidin-4-yl)-3-methylindolin-3-yl)acetic acid], in that order: no more than 100 nM, 100 to 500 nM and 192.
With `CN1CCc2ccc(Nc3ncc(Cl)c(N4CCc5ccccc54)n3)cc2C1` [Example 14, N-(5-Chloro-4-(indolin-1-yl)pyrimidin-2-yl)-2-methyl-1,2,3,4-tetrahydroisoquinolin-7-amine], the concentration for half-maximal inhibition (IC50) is no more than 100 nM in assay [1] (setting [3]); no more than 100 nM in assay [1] (N*: testing performed in a second testing facility, read-out: HPK1 IC50 (nM) Relative, N*); no more than 100 nM in assay [2] (setting [4]); no more than 100 nM in assay [2] (N*: testing performed in a second testing facility, read-out: JAK3 IC50 (nM) Relative, N*). Moreover, in assay [2] (setting [5]), the “JAKs/HPK1 IC50 Ratio, B*” value came out at 6. The “JAKs/HPK1 IC50 Ratio, N*” value in assay [2] (ratio of JAK3 IC50 to HPK1 IC50, second testing facility) is 11.
On to `COc1cc2c(cc1Nc1ncc(Cl)c(N3CC(C)(CC(=O)O)c4cc(F)c(F)cc43)n1)CN(C)CC2` (centres unmarked) [Example 154], for which the IC50 in assay [1] (setting [3]) is no more than 100 nM; in assay [2] (setting [4]), 100 to 500 nM. Moreover, in assay [2] (setting [5]), the “JAKs/HPK1 IC50 Ratio, B*” value is on record as 430.
For `COc1cc2c(cc1Nc1ncc(F)c(N3CC(C(=O)O)c4ccccc43)n1)CN(C)CC2` (centres unmarked) [Example 109, 1-(5-Fluoro-2-((6-methoxy-2-methyl-1,2,3,4-tetrahydroisoquinolin-7-yl)amino)pyrimidin-4-yl)indoline-3-carboxylic acid], in that order: no more than 100 nM, 500 to 1000 nM and 269.
For `COc1cc2c(cc1Nc1ncc(Cl)c(N3CC(C#N)c4ccccc43)n1)CN(C)CC2` (centres unmarked) [Example 99, 1-(5-Chloro-2-((6-methoxy-2-methyl-1,2,3,4-tetrahydroisoquinolin-7-yl)amino)pyrimidin-4-yl)indoline-3-carbonitrile] the same measures were no more than 100 nM, no more than 100 nM and 100.
For `COc1cc2c(cc1Nc1ncc(C#N)c(N3CC(C(=O)O)c4ccccc43)n1)CN(C)CC2` (centres unmarked) [Example 110, 1-(5-Cyano-2-((6-methoxy-2-methyl-1,2,3,4-tetrahydroisoquinolin-7-yl)amino)pyrimidin-4-yl)indoline-3-carboxylic acid] the same measures were no more than 100 nM, greater than 1000 nM and 477.
`COc1cc2c(cc1Nc1ncc(Cl)c(-n3cc(CC(N)=O)c4ccccc43)n1)CN(C)CC2` [Example 133]: the concentration for half-maximal inhibition (IC50) was no more than 100 nM in assay [1] (setting [3]) and greater than 1000 nM in assay [2] (setting [4]). Moreover, the “JAKs/HPK1 IC50 Ratio, B*” value in assay [2] (setting [5]) is 870.
For `COc1cc2c(cc1Nc1ncc(Cl)c(N3CC(C)(CC(=O)O)c4ccccc43)n1)CN(C)CC2` (centres unmarked) [Example 146] the same measures were no more than 100 nM, no more than 100 nM and 90.
For `COc1cc2c(cc1Nc1ncc(Cl)c(N3CC(C)(CC(=O)O)c4cc(F)ccc43)n1)CN(C)CC2` (centres unmarked) [Example 150, 2-(1-(5-Chloro-2-((6-methoxy-2-methyl-1,2,3,4-tetrahydroisoquinolin-7-yl)amino)pyrimidin-4-yl)-5-fluoro-3-methylindolin-3-yl)acetic acid] the same measures were no more than 100 nM, 100 to 500 nM and 171.
On to `COc1cc2c(cc1Nc1ncc(Cl)c(N3CC(C)(CO)c4ccccc43)n1)CN(C)CC2` (centres unmarked) [Example 123], for which the IC50 in assay [1] (setting [3]) and in assay [2] (setting [4]) was no more than 100 nM in each case. Moreover, the “JAKs/HPK1 IC50 Ratio, B*” value in assay [2] (setting [5]) came out at 60.
